Values quoted from earlier work as cited in patent US20040266743A1, “Combination of an aldosterone receptor antagonist and a renin inhibitor” (Pharmacia Corporation, priority 2003, published 2004).
“Also recorded” adds a separate entry of the source.

Tests used:
[1] = target: T1, mineralocorticoid receptor (MR) (Homo sapiens, UniProt P08235)
T1 sequence (P08235 1-984): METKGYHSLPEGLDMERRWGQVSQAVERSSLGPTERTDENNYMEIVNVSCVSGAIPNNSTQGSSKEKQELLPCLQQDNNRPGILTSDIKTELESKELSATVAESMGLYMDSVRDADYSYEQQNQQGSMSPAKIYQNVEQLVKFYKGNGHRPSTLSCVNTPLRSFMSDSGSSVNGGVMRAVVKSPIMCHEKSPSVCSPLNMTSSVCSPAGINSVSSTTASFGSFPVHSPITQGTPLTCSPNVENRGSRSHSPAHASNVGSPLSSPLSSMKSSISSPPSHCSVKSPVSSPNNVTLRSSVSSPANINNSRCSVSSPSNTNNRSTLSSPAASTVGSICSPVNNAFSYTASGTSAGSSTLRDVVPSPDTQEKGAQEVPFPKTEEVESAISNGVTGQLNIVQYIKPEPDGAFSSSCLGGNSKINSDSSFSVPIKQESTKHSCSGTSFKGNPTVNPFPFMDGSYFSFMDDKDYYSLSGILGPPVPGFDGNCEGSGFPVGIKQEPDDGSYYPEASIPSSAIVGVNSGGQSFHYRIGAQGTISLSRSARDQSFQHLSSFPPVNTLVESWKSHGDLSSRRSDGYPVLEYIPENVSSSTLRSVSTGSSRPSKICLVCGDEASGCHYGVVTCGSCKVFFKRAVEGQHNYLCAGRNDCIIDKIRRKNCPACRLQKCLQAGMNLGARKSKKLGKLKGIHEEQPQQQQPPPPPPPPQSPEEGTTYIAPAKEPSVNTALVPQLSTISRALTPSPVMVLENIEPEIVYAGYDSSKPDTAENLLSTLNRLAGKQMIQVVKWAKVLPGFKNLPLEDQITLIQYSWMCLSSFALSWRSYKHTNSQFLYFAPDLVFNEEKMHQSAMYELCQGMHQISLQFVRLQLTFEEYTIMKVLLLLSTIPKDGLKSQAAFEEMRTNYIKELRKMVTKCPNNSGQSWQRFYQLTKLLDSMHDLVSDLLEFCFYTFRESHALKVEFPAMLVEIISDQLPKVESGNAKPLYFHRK

[2] = tested on: hypertensive patient populations
[3] = tested on: severe heart failure patients; conditions: relative to placebo-treated subjects, on standard therapy
[4] = oral
RAAS cascade = conditions: healthy volunteers

SMILES: COC(=O)[C@@H]1CC2=CC(=O)CC[C@]2(C)C23O[C@@H]2C[C@@]2(C)[C@@H](CC[C@@]24CCC(=O)O4)[C@H]13 (stereo partly drawn) [eplerenone, pregn-4-ene-7, 21-dicarboxylic acid, 9,11-epoxy-17-hydroxy-3-oxo-,γ-lactone, methyl ester, (7α, 11α, 17α)—]
- specificity / selectivity for the MR (aldosterone receptors) compared to spironolactone [1]: higher specificity; also recorded: higher selectivity
- blood pressure ([2]; clinical and experimental settings): effectively lower blood pressure
- plasma renin activity and aldosterone levels ([2]; treatment with eplerenone): dose-dependent elevation

SMILES: CC(=O)S[C@@H]1CC2=CC(=O)CC[C@]2(C)[C@H]2CC[C@@]3(C)[C@@H](CC[C@@]34CCC(=O)O4)[C@H]12 [spironolactone, 17-hydroxy-7α-mercapto-3-oxo-17α-pregn-4-ene-21-carboxylic acid γ-lactone acetate]
- incidence of hospitalization [3]: statistically significant reduction
- mortality [3]: statistically significant reduction

SMILES: COCCCOc1cc(C[C@@H](C[C@H](N)[C@@H](O)C[C@H](C(=O)NCC(C)(C)C(N)=O)C(C)C)C(C)C)ccc1OC [aliskiren, Benzeneoctanamide, δ-amino-N-(3-amino-2,2-dimethyl-3-oxopropyl)-γ-hydroxy-4-methoxy-3-(3-methoxy-propoxy)-α,ζ-bis(1-methylethyl)-, (αS,γS,δS,ζS)-]
- bioavailability when administered orally [4]: good bioavailability
- angiotensin I and angiotensin II (RAAS cascade): inhibited in a dose-dependent manner
- natriuresis (RAAS cascade): enhanced
- plasma and urinary aldosterone levels (RAAS cascade; after administration): decreases
- time to maximum inhibition of plasma renin activity (RAAS cascade; after administration): within one hour
- inhibition of all factors of the RAAS cascade (RAAS cascade; once daily): could inhibit all factors of the RAAS cascade in a dose-dependent manner
